Results taken from patent US8846951B2 (AbbVie Inc., priority 2009, dated 2014).
Where two headings read alike, the source gives them in different places.

How the values were obtained:
[1] = target: T1, 5HT2B receptors (Homo sapiens, UniProt P41595); assay: Human 5-HT2B functional high throughput screening assay in CHO-K1 cells (calcium flux); format: cell-based; settings: for EC50: CHO-K1 cells, calcium flux
T1 construct: expressed in transfected cells; host or cells: CHO-K1 cells
Method in brief: (§1)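 Agonism is measured as intracellular calcium increase in receptor-overexpressing CHO-K1 cells, read by FLIPR at 25 °C. Responses are expressed relative to serotonin, with EC50 and Emax derived from a 4-parameter logistic curve over 6 concentrations starting at 10 μM.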

[2] = target: T2, 5HT2C receptors (Homo sapiens, UniProt P28335); assay: Human 5-HT2C functional high throughput screening assay in CHO-K1 cells (calcium flux); format: cell-based; design: expressed in transfected cells; host or cells: CHO-K1 cells; settings: for EC50: CHO-K1 cells, calcium flux
T2 sequence (P28335 33-458): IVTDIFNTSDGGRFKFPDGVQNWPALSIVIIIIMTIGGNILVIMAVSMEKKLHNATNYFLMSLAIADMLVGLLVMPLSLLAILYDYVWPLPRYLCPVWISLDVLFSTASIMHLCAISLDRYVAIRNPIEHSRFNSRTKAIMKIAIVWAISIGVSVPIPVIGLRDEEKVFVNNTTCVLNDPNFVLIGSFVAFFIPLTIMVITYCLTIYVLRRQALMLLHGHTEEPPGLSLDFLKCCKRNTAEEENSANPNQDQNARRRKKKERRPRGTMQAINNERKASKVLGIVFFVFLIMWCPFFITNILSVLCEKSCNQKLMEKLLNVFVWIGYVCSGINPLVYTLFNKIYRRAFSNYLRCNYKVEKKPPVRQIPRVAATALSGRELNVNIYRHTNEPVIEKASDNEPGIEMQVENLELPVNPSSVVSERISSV
Method in brief: as §1

[3] = 5-HT2B agonist activity, read-out: EC50
[4] = 5-HT2B, maximum functional response as percentage relative to the effect of serotonin
[5] = 5-HT2C agonist activity, read-out: EC50
[6] = CHO-K1, 5-HT2C, maximum functional response as percentage relative to the effect of serotonin
[7] = CHO-K1, 5-HT2C, maximum functional response as percentage relative to the effect of serotonin, read-out: Emax

T1 sequence (P41595 whole entry): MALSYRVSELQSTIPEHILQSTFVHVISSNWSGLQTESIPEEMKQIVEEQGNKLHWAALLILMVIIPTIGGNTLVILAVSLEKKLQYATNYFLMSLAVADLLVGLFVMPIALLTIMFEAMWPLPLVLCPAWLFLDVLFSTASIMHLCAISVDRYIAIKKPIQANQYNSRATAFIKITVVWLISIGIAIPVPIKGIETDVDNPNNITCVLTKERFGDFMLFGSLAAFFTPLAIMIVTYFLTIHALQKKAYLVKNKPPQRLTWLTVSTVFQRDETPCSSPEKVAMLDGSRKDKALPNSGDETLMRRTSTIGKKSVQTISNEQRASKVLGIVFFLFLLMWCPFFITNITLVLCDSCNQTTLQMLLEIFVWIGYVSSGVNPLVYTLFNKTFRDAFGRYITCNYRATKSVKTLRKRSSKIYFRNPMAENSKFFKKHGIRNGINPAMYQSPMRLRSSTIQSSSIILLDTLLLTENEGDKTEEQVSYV

| SMILES | EC50 [1, 3] [nM] | Emax [1, 4] | EC50 [2, 5] [nM] | Emax [2, 7] [%] | Emax ([2]; 5-HT2C, maximum functional response as percentage relative to the effect of serotonin) [%] | Emax [1] | Emax ([2]; CHO-K1) [%] | Emax [2, 6] [%] | EC50 ([1]; EC50, 5-HT2B agonist activity) [nM] | EC50 ([2]; EC50, 5-HT2C agonist activity) [nM] | Emax ([1]; CHO-K1) [%] |
| --- | --- | --- | --- | --- | --- | --- | --- | --- | --- | --- | --- |
| C=C(c1ccc2c(c1)C(=O)NC[C@@H]1CN(C)C[C@@H]21)C(F)(F)F (relative stereo) [Example 202, Trans-2-methyl-8-(3,3,3-trifluoroprop-1-en-2-yl)-1,2,3,3a,4,5-hexahydrobenzo[e]pyrrolo[3,4-c]azepin-6(10bH)-one] | > 10000 | inactive | 400 | – | – | – | – | 80 | – | – | – |
| COc1ccc(CCOc2ccc3c(c2)C(=O)NC[C@@H]2CNC[C@@H]32)cc1 (relative stereo) [Example 175, Trans-8-(4-methoxyphenethoxy)-1,2,3,3a,4,5-hexahydrobenzo[e]pyrrolo[3,4-c]azepin-6(10bH)-one] | > 10000 | inactive | 6 | > 120 | – | – | – | – | – | – | – |
| COc1ccc2c(c1)[C@H]1CN(Cc3ccccc3)C[C@@H]1CCC2=O (relative stereo) [Example 261, Trans-2-benzyl-9-methoxy-2,3,3a,4,5,10b-hexahydrobenzo[3,4]cyclohepta[1,2-c]pyrrol-6(1H)-one] | > 10000 | inactive | 40 | > 120 | – | – | – | – | – | – | – |
| O=C1NC[C@@H]2CNC[C@H]2c2ccc(-c3ccc(F)cc3)cc21 (relative stereo) [Example 219, Trans-8-(4-fluorophenyl)-1,2,3,3a,4,5-hexahydrobenzo[e]pyrrolo[3,4-c]azepin-6(10bH)-one] | > 10000 | inactive | – | > 120 | – | – | – | – | – | – | – |
| CN1C[C@@H]2CNC(=O)c3cc(OCC4CC4)ccc3[C@H]2C1 [Example 277, (3aS,10bS)-8-(Cyclopropylmethoxy)-2-methyl-1,2,3,3a,4,5-hexahydrobenzo[e]pyrrolo[3,4-c]azepin-6(10bH)-one] | – | inactive | – | – | – | – | – | 100 | > 10000 | 10 | – |
| c1cncc(-c2cccc3c2OCC[C@H]2CNC[C@H]32)c1 (relative stereo) [Example 368, Trans-7-(pyridin-3-yl)-2,3,3a,4,5,10b-hexahydro-1H-[1]benzoxepino[4,5-c]pyrrole] | – | – | – | – | – | – | – | 90 | 1000 | 10 | 20 |
| CC(C)c1cccc(-c2ccc3c(c2)C(=O)NC[C@@H]2CNC[C@@H]32)c1 (relative stereo) [Example 378, Trans-8-(3-isopropylphenyl)-2,3,3a,4,5,10b-hexahydropyrrolo[3,4-d][2]benzazepin-6(1H)-one] | > 10000 | inactive | 0.4 | 105 | – | – | – | – | – | – | – |
| O=C1NC[C@@H]2CN(CCF)C[C@H]2c2ccc(-c3ccc(F)cc3)cc21 (relative stereo) [Example 384, Trans-2-(2-fluoroethyl)-8-(4-fluorophenyl)-2,3,3a,4,5,10b-hexahydropyrrolo[3,4-d][2]benzazepin-6(1H)-one] | > 10000 | – | 40 | – | – | inactive | 85 | – | – | – | – |
| COc1ccc2c(c1)[C@H]1CNC[C@@H]1CCC2=O [Example 259, (3aR,10bS)-9-Methoxy-2,3,3a,4,5,10b-hexahydrobenzo[3,4]cyclohepta[1,2-c]pyrrol-6(1H)-one] | – | – | – | – | – | – | – | > 120 | 1000 | 60 | 85 |
| CN1C[C@H]2CNC(=O)c3c(F)cccc3[C@@H]2C1 (relative stereo) [Example 92, Trans-7-fluoro-2-methyl-1,2,3,3a,4,5-hexahydrobenzo[e]pyrrolo[3,4-c]azepin-6(10bH)-one] | – | – | – | – | – | – | – | > 120 | 1350 | 56 | 34 |
| Nc1ccc2c(c1)C(=O)NC[C@@H]1CNC[C@@H]21 (relative stereo) [Example 144, Trans-8-amino-1,2,3,3a,4,5-hexahydrobenzo[e]pyrrolo[3,4-c]azepin-6(10bH)-one] | – | – | – | – | – | – | – | > 120 | 1000 | 100 | 60 |
| O=C1NC[C@@H]2CN(Cc3ccccc3)C[C@H]2c2cnccc21 (relative stereo) [Example 152, Trans-2-benzyl-1,2,3,3a,4,5-hexahydropyrido[3,4-e]pyrrolo[3,4-c]azepin-6(10bH)-one] | > 10000 | inactive | 2000 | – | – | – | – | 50 | – | – | – |
| Fc1cc(F)c2c(c1)[C@H]1CNC[C@@H]1CCO2 (relative stereo) [Example 283, Trans-7,9-difluoro-2,3,3a,4,5,10b-hexahydro-1H-[1]benzoxepino[4,5-c]pyrrole] | – | – | – | – | – | – | – | 80 | 60 | 800 | 50 |
| CC(C)C(=O)N1CC[C@@H]2CNC[C@H]2c2ccccc21 (relative stereo) [Example 333, 1-[Trans-2,3,3a,4,5,10b-hexahydropyrrolo[3,4-d][1]benzazepin-6(1H)-yl]-2-methylpropan-1-one] | 2000 | – | 300 | – | – | – | – | 90 | – | – | 40 |
| O=S(=O)(c1ccccc1)N1Cc2cccnc2[C@@H]2CNC[C@H]2C1 (relative stereo) [Example 338, Trans-6-(phenylsulfonyl)-5,6,7,7a,8,9,10,10a-octahydropyrido[3,2-c]pyrrolo[3,4-e]azepine] | – | – | – | – | – | – | – | 80 | 800 | 100 | 20 |

Second part, led by results:

| EC50 [1, 3] [nM] | Emax [1, 4] | EC50 [2, 5] [nM] | Emax [2, 7] [%] | Emax ([2]; 5-HT2C, maximum functional response as percentage relative to the effect of serotonin) [%] | Emax [1] | Emax ([2]; CHO-K1) [%] | SMILES | Emax [2, 6] [%] | EC50 ([1]; EC50, 5-HT2B agonist activity) [nM] | EC50 ([2]; EC50, 5-HT2C agonist activity) [nM] | Emax ([1]; CHO-K1) [%] |
| --- | --- | --- | --- | --- | --- | --- | --- | --- | --- | --- | --- |
| > 10000 | inactive | 60 | > 120 | – | – | – | CN1C[C@H]2CNC(=O)c3cc(-c4ccc(OC(F)(F)F)cc4)ccc3[C@@H]2C1 (relative stereo) [Example 140, Trans-2-methyl-8-(4-(trifluoromethoxy)phenyl)-1,2,3,3a,4,5-hexahydrobenzo[e]pyrrolo[3,4-c]azepin-6(10bH)-one] | – | – | – | – |
| > 10000 | inactive | – | – | 100 | – | – | C[C@@H](O)c1cccc(-c2ccc3c(c2)C(=O)NC[C@H]2CN(C)C[C@H]32)c1 [Example 294, (3aS,10bS)-8-{3-[(1R)-1-hydroxyethyl]phenyl}-2-methyl-2,3,3a,4,5,10b-hexahydropyrrolo[3,4-d][2]benzazepin-6(1H)-one] | – | – | – | – |
| > 10000 | inactive | 40 | 100 | – | – | – | COc1ccc(-c2ccc3c(c2)C(=O)NC[C@@H]2CN(C)C[C@@H]32)c(OC)c1 (relative stereo) [Example 303, Trans-8-(2,4-dimethoxyphenyl)-2-methyl-2,3,3a,4,5,10b-hexahydropyrrolo[3,4-d][2]benzazepin-6(1H)-one] | – | – | – | – |
| > 10000 | inactive | 1 | > 120 | – | – | – | CN1C[C@@H]2CNC(=O)c3cc(OCc4c(F)ccc(F)c4F)ccc3[C@H]2C1 [Example 213, (3aS,10bS)-2-Methyl-8-(2,3,6-trifluorobenzyloxy)-1,2,3,3a,4,5-hexahydrobenzo[e]pyrrolo[3,4-c]azepin-6(10bH)-one] | – | – | – | – |
| > 10000 | inactive | 38 | 90 | – | – | – | CN1C[C@H]2CNC(=O)c3cc(CCc4ccccc4)ccc3[C@@H]2C1 (relative stereo) [Example 87, Trans-2-methyl-8-phenethyl-1,2,3,3a,4,5-hexahydrobenzo[e]pyrrolo[3,4-c]azepin-6(10bH)-one] | – | – | – | – |
| > 10000 | inactive | 200 | > 120 | – | – | – | CN1C[C@H]2CNC(=O)c3cc(C4=CCOCC4)ccc3[C@@H]2C1 (relative stereo) [Example 242, Trans-8-(3,6-dihydro-2H-pyran-4-yl)-2-methyl-1,2,3,3a,4,5-hexahydrobenzo[c]pyrrolo[3,4-e]azepin-6(10bH)-one] | – | – | – | – |
| > 10000 | inactive | 1 | > 120 | – | – | – | CN1C[C@H]2CNC(=O)c3cc(-c4cccc(C(C)(C)O)c4)ccc3[C@@H]2C1 (relative stereo) [Example 186, Trans-8-(3-(2-hydroxypropan-2-yl)phenyl)-2-methyl-1,2,3,3a,4,5-hexahydrobenzo[e]pyrrolo[3,4-c]azepin-6(10bH)-one] | – | – | – | – |
| > 10000 | inactive | 1 | > 120 | – | – | – | CN1C[C@@H]2CNC(=O)c3cc(OCc4ccccc4F)ccc3[C@H]2C1 [Example 207, (3aS,10bS)-8-(2-Fluorobenzyloxy)-2-methyl-1,2,3,3a,4,5-hexahydrobenzo[e]pyrrolo[3,4-c]azepin-6(10bH)-one] | – | – | – | – |
| > 10000 | inactive | 0.7 | 100 | – | – | – | CC(O)c1cc(-c2ccc3c(c2)C(=O)NC[C@H]2CN(C)C[C@H]32)ccc1F (mixture of isomers) [Example 307, (3aS,10bS)-8-[4-Fluoro-3-(1-hydroxyethyl)phenyl]-2-methyl-2,3,3a,4,5,10b-hexahydropyrrolo[3,4-d][2]benzazepin-6(1H)-one] | – | – | – | – |
